In PMC8550792, “Evolution of kinase polypharmacology across HSP90 drug discovery” (Cell Chemical Biology, 2021):
Like-named read-outs stand apart in the source and are kept apart here.

Molecular target: DDR1 (Homo sapiens, UniProt Q08345)
Assay: HotSpot in vitro kinase radiometric assay
Type: biochemical
Parameters: purchased Reaction Biology (HotSpot contract assay)

Chain of DDR1 (Q08345 19-913): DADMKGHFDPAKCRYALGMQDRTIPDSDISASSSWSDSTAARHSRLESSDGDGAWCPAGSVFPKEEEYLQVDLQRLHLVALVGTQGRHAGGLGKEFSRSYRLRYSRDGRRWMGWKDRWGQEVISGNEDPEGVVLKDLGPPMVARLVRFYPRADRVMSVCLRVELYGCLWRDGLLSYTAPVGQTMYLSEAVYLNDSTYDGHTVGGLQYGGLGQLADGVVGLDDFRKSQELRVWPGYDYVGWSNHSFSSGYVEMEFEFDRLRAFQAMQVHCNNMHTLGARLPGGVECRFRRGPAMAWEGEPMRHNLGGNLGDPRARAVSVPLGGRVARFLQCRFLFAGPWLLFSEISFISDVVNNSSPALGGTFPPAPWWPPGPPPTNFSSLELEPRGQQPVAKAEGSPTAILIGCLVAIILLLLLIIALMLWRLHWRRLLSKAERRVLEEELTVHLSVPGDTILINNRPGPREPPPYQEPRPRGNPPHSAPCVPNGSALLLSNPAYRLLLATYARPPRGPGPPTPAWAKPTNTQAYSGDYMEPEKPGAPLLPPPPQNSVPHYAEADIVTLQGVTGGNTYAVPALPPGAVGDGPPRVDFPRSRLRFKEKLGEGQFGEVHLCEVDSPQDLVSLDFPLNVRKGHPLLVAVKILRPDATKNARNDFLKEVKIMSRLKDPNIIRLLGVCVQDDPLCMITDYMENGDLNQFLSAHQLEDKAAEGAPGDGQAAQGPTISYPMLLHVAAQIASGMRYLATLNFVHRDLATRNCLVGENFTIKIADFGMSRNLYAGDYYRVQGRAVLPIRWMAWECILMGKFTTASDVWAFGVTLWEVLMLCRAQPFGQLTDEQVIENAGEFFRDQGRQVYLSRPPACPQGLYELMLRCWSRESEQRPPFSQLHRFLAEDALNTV

CN[C@@H]1C[C@H]2O[C@@](C)([C@@H]1OC)n1c3ccccc3c3c4c(c5c6ccccc6n2c5c31)C(=O)NC4 [Staurosporine]
DDR1 - % activty: 87.08% | HILLSLOPE (DDR1, single replicate curves): -1.76 | DDR1 - % activty (Stauro Conc. 1.25E-06 M): 0.78% | DDR1 - % activty (Stauro Conc. 1.95E-08 M): 5.70% | DDR1 - % activty (Stauro Conc. 2.00E-05 M): -0.41% | DDR1 - % activty (Stauro Conc. 3.05E-10 M): 101.08% | DDR1 - % activty (Stauro Conc. 4.88E-09 M): 36.56% | DDR1 - % activty (Stauro Conc. 7.63E-11 M): 100.44% | DDR1 - % activty (Stauro Conc. 7.81E-08 M): 1.19%
